# Data as given in US20120077836A1, “METHODS OF ADMINISTERING (4AR,10AR)-1-N-PROPYL-1,2,3,4,4A,5,10,10A-OCTAHYDROBENZO [G] QUINOLINE-6,7-DIOL AND RELATED COMPOUNDS ACROSS THE ORAL MUCOSA, THE NASAL MUCOSA OR THE SKIN AND PHARMACEUTICAL COMPOSITIONS THEREOF” (priority 2009, published 2012).
# Counter-ions that a name gives are not always drawn. Like-named read-outs stand apart in the source and are kept apart here.
# Tests used:
# human D2 receptor = target: T1, human D2 receptor (Homo sapiens, UniProt P14416); assay: D2 cAMP assay; type: cell-based
# T1 construct: expressed in transfected cells; host or cells: CHO cells
# Description: The ability of the compounds to either stimulate or inhibit the D2 receptor mediated inhibition of cAMP formation in CHO cells transfected with the human D2 receptor was measured as follows. Cells were seeded in 96 well plates at a concentration of 8000 cells/well 3 days prior to the experiment. On the day of the experiment the cells were washed once in preheated G buffer (1 mM MgCl2, 0.9 mM CaCl2, 1 mM IBMX in PBS) and the assay was initiated by addition of 100 micro-1 of a mixture of 1 micro-M quinpirole, 10 microM forskolin and test compound in G buffer (antagonism) or 10 micro-M forskolin and test compound in G buffer (agonism).
# [1] = test system: rats with unilateral 6-OHDA lesions; assay: Dyskinesia model with naive 6-OHDA rats (AIMS)
# [2] = test system: rats with unilateral 6-OHDA lesions; assay: Rotation response in 6-OHDA rats after transdermal delivery; type: in vivo, rat
# Description: We have used rats with unilateral 6-OHDA lesions to assess compound 10 for its ability to induce rotation after transdermal administration [for details on the model, see the description under example 7]. Three groups of six animals were treated with different doses of compound 10 administered transdermally. Compound 10 (24 mg) was suspended in a mixture of 0.02% ascorbic acid and 20% ethanol in saline (9 mL); the resulting suspension was diluted with dimethyl sulfoxide (0.45 mL). The appropriate amount of this formulation was applied to the ears of the animals. The ears were rubbed gently before the rotation response of the animals was assessed over 3 h. […]
# MPTP treated marmosets = assay: Anti-parkinsonian effects in MPTP-treated common marmosets; type: in vivo, common marmoset; set-up: disability score (120 min) / disability score (180 min) / disability score (240 min) / disability score (300 min) / disability score (360 min) / disability score (420 min) / disability score (60 min): scale not given here
# Description: The experiments were conducted using 6 MPTP treated marmosets (2.0 mg/kg daily for up to 5 consecutive days dissolved in sterile 0.9% saline solution). All the animals had previously been treated with L-DOPA (12.5 mg/kg p.o., plus carbidopa 12.5 mg/kg p.o.) administered daily for up to 30 days in order to induce dyskinesia. […] Domperidone was administered 60 min before any of the test compounds. Domperidone is an antidopaminergic drug that suppresses nausea and vomiting. Locomotor activity was assessed using test cages that are comprised of 8 photo-electric switches comprised of 8 infra-red beams which are strategically placed in the cage and interruption of a beam is recorded as one count. […] The assessment of motor disability was performed by a trained observer blinded to the treatment.
# The dose chosen for this challenge is at the top of the dose response curve for this drug.
# reserpinesed rats = assay: Reversal of reserpine-induced hypomotility in rats; type: in vivo, rat; conditions: for activity count: reserpine 5 mg/kg SC 23-24 h before, over 3 hours
# Description: Rats weighing ca. 200 g were treated with reserpine (5 mg/kg subcutaneously as a solution in 20% aqueous solutol for which pH was adjusted to 4 with methanesulfonic acid). […] Group 1: treated with 20% ethanol in 0.7% aqueous sodium chloride subcutaneously.
# MPTP/AMPT mouse model = assay: Superiority model, hypomotility in the MPTP/AMPT mouse model; type: in vivo; conditions: for activity count (0.5-1.5 h): AMPT 250 mg/kg SC
# Description: MPTP (1-methyl-4-phenyl-1,2,3,6-tetrahydropyridine) is a neurotoxin that causes permanent symptoms of Parkinson's disease by killing certain neurons in the substantia nigra of the brain. It is used to study the disease in monkeys and mice. […] Various compounds (all dosed subcutaneously) were tested for their ability to reverse the motility deficits produced in this model.
# [3] = target: T2, human recombinant D1 receptor (Homo sapiens, UniProt P21728); assay: D1 cAMP assay; type: cell-based
# T2 construct: expressed in transfected cells
# Description: The ability of the compounds to either stimulate or inhibit the D1 receptor mediated cAMP formation in CHO cells stably expressing the human recombinant D1 receptor was measured as follows. Cells were seeded in 96-well plates at a concentration of 11000 cells/well 3 days prior to the experiment.
# [4] = test system: rats with unilateral 6-OHDA lesions; assay: D1/D2 dissection, rotation response in rats with unilateral 6-OHDA lesions; type: in vivo, rat
# Text: Rats weighing 200-250 g were subjected to unilateral 6-OHDA lesions. […] Nemonapride is a D2 antagonist that blocks the D2 receptors, therefore any observed rotations would be dependent upon activity at the D1 receptors.
# [5] = target: T3, hD5-transfected CHO-Ga16 cells (Homo sapiens, UniProt P21918); assay: D5 assay, intracellular Ca2+ release (FLIPR); type: cell-based
# T3 construct: expressed in transfected cells; host or cells: CHO-Ga16 cells
# [6] = test system: unilaterally lesioned 6-OHDA rats; type: in vivo, rat
# Description: Animals were generated as described under example 7. Four groups of animals were dosed with various doses of compound 10 (group 1, 1 microg/kg; group 2, 10 microg/kg; group 3, 25 microg/kg; group 4, 50 microg/kg). In all cases, compound 10 was administered in one of the nostrils in a volume of 20 microL of a solution of the appropriate concentration in 20% ethanol in 0.7% aqueous sodium chloride containing 0.02% ascorbic acid. The drug solution was applied to one of the nostrils and the nose was gently massaged to ensure distribution of the administered solution over the nasal mucosa. The degree of rotation behaviour of the animals was recorded over the next 3 hours.
# [7] = read-out: intrinsic activity (efficacy)
# T2 sequence (P21728 whole entry): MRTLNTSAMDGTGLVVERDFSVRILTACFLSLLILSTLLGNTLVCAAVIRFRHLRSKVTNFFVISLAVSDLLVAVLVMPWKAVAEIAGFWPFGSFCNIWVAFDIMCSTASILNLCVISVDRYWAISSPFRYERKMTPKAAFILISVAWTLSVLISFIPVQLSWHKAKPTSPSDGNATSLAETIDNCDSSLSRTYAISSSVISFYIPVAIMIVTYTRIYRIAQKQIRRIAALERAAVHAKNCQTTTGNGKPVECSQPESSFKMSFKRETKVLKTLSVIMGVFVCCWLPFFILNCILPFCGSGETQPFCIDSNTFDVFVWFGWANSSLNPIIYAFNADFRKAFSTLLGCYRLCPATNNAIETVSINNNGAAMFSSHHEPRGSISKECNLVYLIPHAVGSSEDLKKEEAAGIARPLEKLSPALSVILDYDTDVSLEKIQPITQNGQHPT
# T3 sequence (P21918 whole entry): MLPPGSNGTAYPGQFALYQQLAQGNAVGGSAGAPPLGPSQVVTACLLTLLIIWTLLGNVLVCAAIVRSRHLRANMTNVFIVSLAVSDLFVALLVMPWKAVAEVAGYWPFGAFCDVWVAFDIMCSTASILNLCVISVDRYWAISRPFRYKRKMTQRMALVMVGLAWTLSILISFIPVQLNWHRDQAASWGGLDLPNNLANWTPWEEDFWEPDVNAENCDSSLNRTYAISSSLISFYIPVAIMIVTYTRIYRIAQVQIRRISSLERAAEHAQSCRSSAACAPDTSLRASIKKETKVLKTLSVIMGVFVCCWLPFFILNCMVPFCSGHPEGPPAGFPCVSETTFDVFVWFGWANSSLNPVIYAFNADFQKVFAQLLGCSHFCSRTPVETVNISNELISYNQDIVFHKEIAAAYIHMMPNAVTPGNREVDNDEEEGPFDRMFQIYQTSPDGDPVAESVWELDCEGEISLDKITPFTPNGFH
# T1 sequence (P14416 whole entry): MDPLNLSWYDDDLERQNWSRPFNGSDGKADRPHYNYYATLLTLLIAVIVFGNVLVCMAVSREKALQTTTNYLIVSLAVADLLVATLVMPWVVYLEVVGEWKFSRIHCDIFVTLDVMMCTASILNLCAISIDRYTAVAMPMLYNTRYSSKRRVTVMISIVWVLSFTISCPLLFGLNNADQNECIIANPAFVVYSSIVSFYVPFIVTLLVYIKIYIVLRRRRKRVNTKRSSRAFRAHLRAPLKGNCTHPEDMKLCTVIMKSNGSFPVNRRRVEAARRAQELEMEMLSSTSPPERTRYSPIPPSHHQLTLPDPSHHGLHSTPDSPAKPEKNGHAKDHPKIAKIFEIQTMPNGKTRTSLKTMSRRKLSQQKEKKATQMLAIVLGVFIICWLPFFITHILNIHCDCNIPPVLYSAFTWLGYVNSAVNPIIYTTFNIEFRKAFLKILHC
structure (smiles),measurement,setting,value
"CCCN1CCC[C@@H]2Cc3c(ccc(O)c3O)C[C@H]21 [compound 10, (4aR,10aR)-1-n-Propyl-1,2,3,4,4a,5,10,10a-octahydro-benzo[g]quinoline-6,7-diol hydrobromide]",EC50,human D2 receptor,0.11 nM
same,Emax,human D2 receptor; [7],100%
same,mean AIM score (day 19),"[1]; group 1: compound 10 0.0013 mg/kg SC days 1-14, then compound 10 0.0013 mg/kg SC days 15-19",25
same,mean AIM score (day 19),"[1]; group 2: L-DOPA/Benserazide 6/15 mg/kg SC days 1-14, then compound 10 0.0013 mg/kg SC days 15-19",18
same,mean AIM score (day 19),"[1]; group 3: apomorphine 1 mg/kg SC days 1-14, then compound 10 0.0013 mg/kg SC days 15-19",39
same,dyskinesia score (AIMS),"[1]; once daily SC, scored days 1-12",about 30
same,mean number of rotations over 3 h,[2]; 0.127 mg/kg transdermally (ears),482
same,mean number of rotations over 3 h,[2]; 0.254 mg/kg transdermally (ears),837
same,mean number of rotations over 3 h,[2]; 0.381 mg/kg transdermally (ears),1448
same,induction of circling behavior,"[2]; transdermal delivery, three dose groups",induced circling behavior in all three groups
same,disability score (60 min),MPTP treated marmosets; 0.001 mg/kg SC,14.3
same,disability score (120 min),MPTP treated marmosets; 0.001 mg/kg SC,2.3
same,disability score (180 min),MPTP treated marmosets; 0.001 mg/kg SC,2.5
same,disability score (240 min),MPTP treated marmosets; 0.001 mg/kg SC,3.0
same,disability score (300 min),MPTP treated marmosets; 0.001 mg/kg SC,2.5
same,disability score (360 min),MPTP treated marmosets; 0.001 mg/kg SC,6.5
same,disability score (420 min),MPTP treated marmosets; 0.001 mg/kg SC,8.5
same,disability score (60 min),MPTP treated marmosets; 0.01 mg/kg SC,10.0
same,disability score (120 min),MPTP treated marmosets; 0.01 mg/kg SC,2.2
same,disability score (180 min),MPTP treated marmosets; 0.01 mg/kg SC,2.0
same,disability score (240 min),MPTP treated marmosets; 0.01 mg/kg SC,2.2
same,disability score (300 min),MPTP treated marmosets; 0.01 mg/kg SC,2.7
same,disability score (360 min),MPTP treated marmosets; 0.01 mg/kg SC,2.3
same,disability score (420 min),MPTP treated marmosets; 0.01 mg/kg SC,2.7
same,effect on locomotor activity and motor disability,"MPTP treated marmosets; L-DOPA 12.5 mg/kg p.o., compound 10 0.001 or 0.01 mg/kg SC",dose-related increase in locomotor activity and reversal of motor disability
same,reversal of reserpine-induced hypomotility,reserpinesed rats; administered buccally,reversed the hypomotility
same,reversal of reserpine-induced hypomotility,reserpinesed rats; administered subcutaneously,reversed the reserpine-induced hypomotility
same,activity count,reserpinesed rats; 0.05 mg/kg buccally,378
same,activity count,reserpinesed rats; 0.10 mg/kg buccally,533
same,activity count,"reserpinesed rats; apomorphine 1 mg/kg SC, compound 10 0.01 mg/kg SC, controls: vehicle 486, reserpine/vehicle 17",308
same,reversal of motility deficits,"MPTP/AMPT mouse model; MPTP/AMPT mice, all dosed subcutaneously",restored locomotion in the mice in a dose-dependent manner
same,activity count (0.5-1.5 h),"MPTP/AMPT mouse model; Table 4c, 0.003 mg/kg SC, controls: vehicle 405, AMPT/vehicle 12",8
same,activity count (0.5-1.5 h),"MPTP/AMPT mouse model; Table 4c, 0.01 mg/kg SC",228
same,activity count (0.5-1.5 h),"MPTP/AMPT mouse model; Table 4c, 0.03 mg/kg SC",440
same,activity count (0.5-1.5 h),"MPTP/AMPT mouse model; Table 4e direct comparison, apomorphine 1 mg/kg SC, pramipexole 1 mg/kg SC, compound 10 0.030 mg/kg SC, controls: vehicle 509, AMPT/vehicle 2",690
same,EC50,[3],15.5 nM
same,Emax,[3]; [7],100%
same,MED (minimum effective dose to induce rotation),"[4]; dosed SC, 6-OHDA rats",0.65 µg/kg
same,MEDNemonapride (MED to overcome Nemonapride block),"[4]; dosed SC, 6-OHDA rats, * = rotations could not be blocked by SCH23390",1.3 µg/kg
same,mixed D1/D2 ratio,"[4]; subcutaneous, 6-OHDA rat rotation model",about 2
same,EC50,[5],0.06 nM
same,Emax,"[5]; CHO-Ga16, read-out: intrinsic activity (efficacy)",95%
same,mean number of rotations (0-3 h),"[6]; group 1, intranasal 1 microg/kg",401
same,mean number of rotations (0-3 h),"[6]; group 2, intranasal 10 microg/kg",691
same,mean number of rotations (0-3 h),"[6]; group 3, intranasal 25 microg/kg",1286
same,mean number of rotations (0-3 h),"[6]; group 4, intranasal 50 microg/kg",2122
